How the values were obtained:
[1] = target: hERG potassium ion channel (Homo sapiens (Human), UniProt Q12809); assay: hERG potassium channel current, automatic patch-clamp QPatch, CHO-hERG cells; type: cell-based; details: highest test concentration 40 μM
Description: The effect of the compound of formula (I) on the hERG potassium channel current was investigated by adopting CHO (Chinese Hamster ovary) cell stably expressing the hERG potassium ion channel and using the fully automatic patch-clamp QPatch technology.
CHO-hERG cells were cultured in a 175 cm^2 culture flask. After the cell density increased to 60-80%, the culture medium was removed, the cells were washed once with 7 mL PBS, and then 3 mL Detachin was added for digestion.
After the digestion was complete, 7 mL of culture medium was added for neutralization, and then the mixture was centrifuged. The supernatant was removed, and then 5 mL of culture medium was added for resuspension to ensure that the cell density was 2-5×10^6/mL. […]
The single-cell high-impedance sealing and the whole-cell mode formation process were all automatically completed by the Qpatch instrument. […] The data were recorded for 2 minutes, then extracellular fluid was given, and then the data were recorded for 5 minutes. […] The experimental data were analyzed by XLFit software.

[2] = tested on: Human prostatic cancer PC-3 cells; assay: In vivo pharmacodynamics, PC-3 subcutaneous xenograft tumor model; details: 50 mg/kg PO BID x 21 days
Description: The formulation method of the test substance was the same as in Table 6, and the animal grouping and the dosage regimen were the same as in Table 7.
• Species: mouse • Strain: BALB/c nude mouse • Week-age and weight: 6-8 weeks of age, 18-22 grams of body weight • Sex: male • Supplier: Shanghai Sippr-BK laboratory animal Co. Ltd.
Human prostatic cancer PC-3 cells were cultured in monolayer in vitro, and the culture conditions were F-12K culture medium (supplier: Gibco; article number: 21127-022; manufacturing batch number: 1868870) with 10% fetal bovine serum, 100 U/mL penicillin and 100 μg/mL streptomycin. The culture was performed at 37° C. in 5% CO2. Conventional digestion treatment with pancreatin-EDTA for passage was carried out twice a week. When the cells were in the exponential growth phase, the cells were harvested, counted, and inoculated.
0.1 mL of 10×10^6 PC-3 cells were subcutaneously inoculated into the right-back of each nude mouse. The grouping and administration was started when the average tumor volume reached 100-150 mm^3.
3.3 Tumor measurement, experiment indices, and statistical analysis were the same as MDA-MB-231 model.

[3] = tested on: Human breast cancer MDA-MB-231_luc cells; assay: In vivo pharmacodynamics, MDA-MB-231_luc subcutaneous xenograft tumor model; details: 50 mg/kg PO BID x 21 days
Description: • Species: mouse • Strain: BALB/c nude mouse • Week-age and weight: 6-8 weeks of age, 18-22 grams of body weight • Sex: Female • Supplier: Shanghai Sippr-BK laboratory animal Co. Ltd.
Human breast cancer MDA-MB-231_luc cells were cultured in monolayer in vitro and the culture conditions were RPMI-1640 culture medium (supplier: Gibco; article number: 22400-089; manufacturing batch number: 4868546) with 10% fetal bovine serum, 100 U/ml penicillin and 100 μg/mL streptomycin. The culture was performed at 37° C. in 5% CO2. Conventional digestion treatment with pancreatin-EDTA for passage was carried out twice a week. When the cells were in the exponential growth phase, the cells were harvested, counted, and inoculated. […]
The experiment index was to investigate whether tumor growth was inhibited, delayed or cured. Tumor diameter was measured twice a week with vernier calipers. […]
The tumor inhibition effect of the compound was evaluated by TGI (%) or relative tumor proliferation rate T/C (%). […]
Relative tumor proliferation rate T/C (%) was calculated according to the below equation: T/C %=TRTV/CRTV×100% (TRTV: RTV of the treatment group; CRTV: RTV of the negative control group). The relative tumor volume (RTV) was calculated according to the results of the tumor measurement. […]

Sequence of hERG potassium ion channel (Q12809 whole entry): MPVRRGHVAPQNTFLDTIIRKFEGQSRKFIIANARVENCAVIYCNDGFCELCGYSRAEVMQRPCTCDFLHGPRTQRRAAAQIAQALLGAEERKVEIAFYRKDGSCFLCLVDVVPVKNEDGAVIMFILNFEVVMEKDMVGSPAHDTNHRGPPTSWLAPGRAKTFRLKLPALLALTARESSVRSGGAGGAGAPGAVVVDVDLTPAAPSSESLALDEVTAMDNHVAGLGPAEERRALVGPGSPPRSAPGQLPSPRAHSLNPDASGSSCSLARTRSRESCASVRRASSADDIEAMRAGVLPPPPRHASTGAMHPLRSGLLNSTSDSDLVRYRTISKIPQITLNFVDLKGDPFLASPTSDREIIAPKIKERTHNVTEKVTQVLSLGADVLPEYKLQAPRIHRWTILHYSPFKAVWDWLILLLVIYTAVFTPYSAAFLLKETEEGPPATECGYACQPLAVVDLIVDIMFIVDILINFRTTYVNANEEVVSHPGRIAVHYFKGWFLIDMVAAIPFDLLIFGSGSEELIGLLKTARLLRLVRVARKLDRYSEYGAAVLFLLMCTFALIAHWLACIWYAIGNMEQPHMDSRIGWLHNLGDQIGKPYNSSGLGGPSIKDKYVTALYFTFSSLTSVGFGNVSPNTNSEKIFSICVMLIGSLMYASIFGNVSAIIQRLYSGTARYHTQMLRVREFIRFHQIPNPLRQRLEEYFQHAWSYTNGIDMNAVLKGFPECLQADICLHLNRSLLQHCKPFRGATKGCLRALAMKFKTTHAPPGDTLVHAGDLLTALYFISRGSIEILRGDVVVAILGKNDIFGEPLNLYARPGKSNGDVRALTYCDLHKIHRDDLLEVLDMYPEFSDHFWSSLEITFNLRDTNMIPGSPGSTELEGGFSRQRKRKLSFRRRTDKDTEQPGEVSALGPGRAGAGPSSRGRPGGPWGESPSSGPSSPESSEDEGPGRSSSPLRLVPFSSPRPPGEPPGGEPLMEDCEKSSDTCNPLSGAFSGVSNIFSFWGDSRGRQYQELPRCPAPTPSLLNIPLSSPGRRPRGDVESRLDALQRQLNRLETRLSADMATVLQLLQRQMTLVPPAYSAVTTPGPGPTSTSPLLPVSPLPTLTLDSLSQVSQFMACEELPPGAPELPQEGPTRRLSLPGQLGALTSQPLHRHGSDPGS

**Q.** Cc1sc2c(c1C)C(c1ccc(Cl)cc1)=N[C@@H](CC(=O)Nc1ccc3c(c1)COC3=O)c1nnc(C)n1-2 [Compound of formula (I)] was tested. Which IC50 [1] did it give?
**A.** > 40 µM

**Q.** And the tolerability [2]?
**A.** well tolerated

**Q.** And the “change in body weight of the animals” value [3]?
**A.** no significant change

**Q.** What about the tolerability [3] of the same compound?
**A.** well tolerated

Source: patent publication US12344620B2, “BRD4 inhibitor compound in solid form and preparation method therefor and use thereof” (CSPC ZHONGQI PHARMACEUTICAL TECHNOLOGY (SHIJIAZHUANG) CO., …, priority 2019, dated 2025)
